Laboratory results published in US9475816B2, “Substituted-1,4-dihydropyrazolo[4,3-b]indoles” (TAKEDA PHARMACEUTICAL COMPANY LIMITED, priority 2012, dated 2016).

Legend:
human MetAP2 enzyme [1] = molecular target: T1, human MetAP2 enzyme (Homo sapiens, UniProt P50579); experiment: MetAP2 enzyme assay, MetAP2 enzyme complexed with cobalt ions; conditions: MetAP2 Co pIC50, 10 μM CoCl2; -log(IC50), IC50 molar
Procedure: (§1) DNA encoding the full-length sequence of human MetAP2 enzyme is amplified by PCR and cloned into a pFastBac expression vector (Invitrogen). Recombinant baculovirus incorporating the MetAP2 construct is generated by transposition using the Bac-to-Bac system (Invitrogen). The expression of recombinant protein is carried out by infection of Spodoptera frugiperda Sf9 cells (Invitrogen) in 5L Wave Bioreactors (Wave Biotech). Recombinant protein is isolated from cellular extracts by binding to an SP Hitrap Fast Flow or SP Sepharose (Sigma) column, and the protein is eluted using a NaCl gradient. Partially purified extracts of MetAP2 are further purified by an AKTA FPLC over a Superdex-200 column (GE). The purity of MetAP2 protein is determined on denaturing SDS-PAGE gel.
(§2) The results for each well are expressed as percent inhibition and calculated using the equation:

human MetAP2 enzyme [2] = molecular target: T1, human MetAP2 enzyme; experiment: MetAP2 enzyme assay, MetAP2 enzyme complexed with manganese ions; conditions: MetAP2 Mn pIC50, 10 μM MnCl2; -log(IC50), IC50 molar
Procedure: as §1, §2

T1 sequence (P50579 whole entry): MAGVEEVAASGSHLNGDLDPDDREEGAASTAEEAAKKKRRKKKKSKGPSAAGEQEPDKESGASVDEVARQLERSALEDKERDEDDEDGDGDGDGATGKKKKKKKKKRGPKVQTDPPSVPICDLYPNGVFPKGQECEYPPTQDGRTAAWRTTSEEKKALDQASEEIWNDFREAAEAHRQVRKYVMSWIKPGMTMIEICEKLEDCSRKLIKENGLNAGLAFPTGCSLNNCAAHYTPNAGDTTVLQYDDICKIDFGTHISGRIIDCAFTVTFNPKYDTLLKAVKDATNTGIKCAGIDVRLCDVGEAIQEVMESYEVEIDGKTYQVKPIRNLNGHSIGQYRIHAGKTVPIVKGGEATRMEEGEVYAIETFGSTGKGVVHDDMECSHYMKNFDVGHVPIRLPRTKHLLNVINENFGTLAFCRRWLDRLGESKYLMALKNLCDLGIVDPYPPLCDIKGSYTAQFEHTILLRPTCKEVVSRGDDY

SMILES	IC50 (human MetAP2 enzyme [1]) [nM]	IC50 (human MetAP2 enzyme [2]) [nM]
Cc1nc(C(=O)N(C)CCO)ccc1-n1c2ccc(F)cc2c2[nH]ncc21 [Example 120, 5-(7-Fluoropyrazolo[4,3-b]indol-4(1H)-yl)-N-(2-hydroxyethyl)-N,6-dimethylpicolinamide]	15.8	15.8
Cc1nc2c(cc1-n1c3ccc(F)cc3c3[nH]ncc31)ncn2C[C@H](O)CO [Example 79, (2S)-3-(6-(7-Fluoropyrazolo[4,3-b]indol-4(1H)-yl)-5-methyl-3H-imidazo[4,5-b]pyridin-3-yl)propane-1,2-diol]	15.8	25.1
Cc1cc(C(=O)N2CC(N)C2)ncc1-n1c2ccc(F)cc2c2[nH]ncc21 [Example 114, (3-Aminoazetidin-1-yl)(5-(7-fluoropyrazolo[4,3-b]indol-4(1H)-yl)-4-methylpyridin-2-yl)methanone]	25.1	12.6
Cc1nc(N2CC[C@H](O)C2)ncc1-n1c2ccc(F)cc2c2[nH]ncc21 [Example 55, (S)-1-(5-(7-Fluoropyrazolo[4,3-b]indol-4(1H)-yl)-4-methylpyrimidin-2-yl)pyrrolidin-3-ol]	25.1	15.8
Cc1ncccc1-n1c2ccc(F)cc2c2[nH]ncc21 [Example 61, 7-Fluoro-4-(2-methylpyridin-3-yl)-1,4-dihydropyrazolo[4,3-b]indole]	15.8	12.6
Cc1cc(N(C)CCO)ncc1-n1c2ccc(F)cc2c2[nH]ncc21 [Example 63, 2-((5-(7-Fluoropyrazolo[4,3-b]indol-4(1H)-yl)-4-methylpyridin-2-yl)(methyl)amino)ethanol]	15.8	15.8
Cc1cc(C(N)=O)ncc1-n1c2ccc(F)cc2c2[nH]ncc21 [Example 107, 5-(7-Fluoropyrazolo[4,3-b]indol-4(1H)-yl)-4-methylpicolinamide]	20	12.6
Cn1nccc1-n1c2ccc(F)cc2c2[nH]ncc21 [Example 46, 7-Fluoro-4-(1-methyl-1H-pyrazol-5-yl)-1,4-dihydropyrazolo[4,3-b]indole]	20	20
Nc1ncc(C(=O)O)cc1-n1c2ccc(F)cc2c2[nH]ncc21 [Example 18, 6-Amino-5-(7-fluoropyrazolo[4,3-b]indol-4(1H)-yl)nicotinic acid]	100	63.1
CN1CCN(c2cc(-n3c4ccc(F)cc4c4[nH]ncc43)ccn2)CC1 [Example 8, 7-Fluoro-4-(2-(4-methylpiperazin-1-yl)pyridin-4-yl)-1,4-dihydropyrazolo[4,3-b]indole]	25.1	5.01
CNC(=O)c1cc(C)c(-n2c3ccc(F)cc3c3[nH]ncc32)cn1 [Example 113, 5-(7-Fluoropyrazolo[4,3-b]indol-4(1H)-yl)-N,4-dimethylpicolinamide]	12.6	10

Continued by falling IC50 (human MetAP2 enzyme [1]), values first:

IC50 (human MetAP2 enzyme [1]) [nM]	IC50 (human MetAP2 enzyme [2]) [nM]	SMILES
12.6	10	Cc1nc(C(=O)N2CC(C#N)C2)ccc1-n1c2ccc(F)cc2c2[nH]ncc21 [Example 125, 1-(5-(7-Fluoropyrazolo[4,3-b]indol-4(1H)-yl)-6-methylpicolinoyl)azetidine-3-carbonitrile]
12.6	7.94	Cc1cc2c(cc1F)c1[nH]ncc1n2-c1cc2[nH]cnc2nc1C [Example 131, 7-Fluoro-6-methyl-4-(5-methyl-1H-imidazo[4,5-b]pyridin-6-yl)-1,4-dihydropyrazolo[4,3-b]indole]
12.6	7.94	Cc1ccc(-n2c3ccc(F)cc3c3[nH]ncc32)c(C)n1 [Example 10, 4-(2,6-Dimethylpyridin-3-yl)-7-fluoro-1,4-dihydropyrazolo[4,3-b]indole]
10	10	Cc1cc2nn(C)cc2cc1-n1c2ccc(F)cc2c2[nH]ncc21 [Example 15, 4-(2,6-Dimethyl-2H-indazol-5-yl)-7-fluoro-1,4-dihydropyrazolo[4,3-b]indole]
10	6.31	Cc1nc(N2CC[C@H](S(C)(=O)=O)C2)ncc1-n1c2ccc(F)cc2c2[nH]ncc21 [Example 137, 7-Fluoro-4-(4-methyl-2-((S)-3-(methylsulfonyl)pyrrolidin-1-yl)pyrimidin-5-yl)-1,4-dihydropyrazolo[4,3-b]indole]
7.94	3.16	Cc1nc(N2CCC[C@H]2C(N)=O)ncc1-n1c2ccc(F)cc2c2[nH]ncc21 [Example 72, (2S)-1-(5-(7-Fluoropyrazolo[4,3-b]indol-4(1H)-yl)-4-methylpyrimidin-2-yl)pyrrolidine-2-carboxamide]
7.94	10	Cc1nc2c(cc1-n1c3ccc(F)cc3c3[nH]ncc31)ncn2CCO [Example 82, 2-(6-(7-Fluoropyrazolo[4,3-b]indol-4(1H)-yl)-5-methyl-3H-imidazo[4,5-b]pyridin-3-yl)ethanol]
7.94	6.31	Cc1cc2cn(C)nc2cc1-n1c2ccc(F)cc2c2[nH]ncc21 [Example 16, 4-(2,5-Dimethyl-2H-indazol-6-yl)-7-fluoro-1,4-dihydropyrazolo[4,3-b]indole]
7.94	10	Cc1nc2[nH]c(=O)[nH]c2cc1-n1c2ccc(F)cc2c2[nH]ncc21 [Example 87, 6-(7-Fluoropyrazolo[4,3-b]indol-4(1H)-yl)-5-methyl-1H-imidazo[4,5-b]pyridin-2(3H)-one]
7.94	5.01	Cc1nc(N[C@H](C)CO)ncc1-n1c2ccc(F)cc2c2[nH]ncc21 [Example 75, (2R)-2-((5-(7-Fluoropyrazolo[4,3-b]indol-4(1H)-yl)-4-methylpyrimidin-2-yl)amino)propan-1-ol]
6.31	7.94	Cc1nc(N2CCN(C)C(=O)C2)ncc1-n1c2ccc(F)cc2c2[nH]ncc21 [Example 39, 4-(5-(7-Fluoropyrazolo[4,3-b]indol-4(1H)-yl)-4-methylpyrimidin-2-yl)-1-methylpiperazin-2-one]
6.31	7.94	Cc1nc(N2CCC(O)CC2)ncc1-n1c2ccc(F)cc2c2[nH]ncc21 [Example 29, 1-(5-(7-Fluoropyrazolo[4,3-b]indol-4(1H)-yl)-4-methylpyrimidin-2-yl)piperidin-4-ol]
6.31	3.98	Cc1nc(N2CCC[C@@H](O)C2)ncc1-n1c2ccc(F)cc2c2[nH]ncc21 [Example 24, (3R)-1-(5-(7-Fluoropyrazolo[4,3-b]indol-4(1H)-yl)-4-methylpyrimidin-2-yl)piperidin-3-ol]
6.31	10	Cc1nc(N2CC[C@H](C(=O)NCCO)C2)ncc1-n1c2ccc(F)cc2c2[nH]ncc21 [Example 103, (3S)-1-(5-(7-Fluoropyrazolo[4,3-b]indol-4(1H)-yl)-4-methylpyrimidin-2-yl)-N-(2-hydroxyethyl)pyrrolidine-3-carboxamide]
6.31	5.01	Cc1c(-n2c3ccc(F)cc3c3[nH]ncc32)cnc2[nH]c(=O)[nH]c12 [Example 28, 6-(7-Fluoropyrazolo[4,3-b]indol-4(1H)-yl)-7-methyl-1H-imidazo[4,5-b]pyridin-2(3H)-one]
5.01	5.01	Cc1nc(N2C[C@H]3C[C@H]3[C@H]2C(N)=O)ncc1-n1c2ccc(F)cc2c2[nH]ncc21 [Example 136, (1R,2S,5S)-3-(5-(7-Fluoropyrazolo[4,3-b]indol-4(1H)-yl)-4-methylpyrimidin-2-yl)-3-azabicyclo[3.1.0]hexane-2-carboxamide]
